According to patent US12064433B2 (ARCUS BIOSCIENCES, INC., priority 2018, dated 2024):

Legend:
[1] = target: T1, Human A2BR (Homo sapiens, UniProt P29275); assay: Human 2B Adenosine Receptor CHO-K1 cAMP antagonist functional assay; format: cell-based; conditions: cAMP antagonist functional assay vs NECA, CHO-K1 cells stably expressing Human A2BR; read-out: A2B (Potency: A2BR KB)
T1 sequence (P29275 1-332): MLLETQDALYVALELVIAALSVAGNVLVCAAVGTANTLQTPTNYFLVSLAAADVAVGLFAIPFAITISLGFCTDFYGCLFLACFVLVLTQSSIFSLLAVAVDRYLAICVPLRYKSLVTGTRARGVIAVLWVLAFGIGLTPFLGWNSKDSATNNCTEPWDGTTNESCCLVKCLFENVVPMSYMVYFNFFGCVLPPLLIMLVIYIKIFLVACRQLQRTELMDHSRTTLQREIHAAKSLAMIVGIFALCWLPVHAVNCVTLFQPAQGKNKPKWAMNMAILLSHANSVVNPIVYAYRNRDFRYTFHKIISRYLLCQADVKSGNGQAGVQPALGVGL
Protocol: Measurement of the Adenosine Receptor Activity of Compounds Using a Human 2B Adenosine Receptor CHO-K1 cAMP Functional Assay
CHO-K1 cells stably expressing Human Adenosine 2B Receptor (A2BR: Cat. No. M000329, GenScript) were purchased from GenScript Inc., Piscataway, NJ 08854, USA.
The cAMP antagonist functional assay (Perkin Elmer) was performed on CHO-K1 cells stably expressing Human A2BR. 1×10^6 cells were seeded in T75 flasks and cultured at 37° C. and 5% CO2 overnight. 2,000-4,000 cells/well of stably-expressed A2bR CHO-K1 cells were then seeded to a white 384-well Opti plate followed by compound 1 incubation at various concentrations (ranging from 1 μM to 0 μM) at 37° C. for 1 hour.
(§1) A 1:2 serial dilution of NECA (Sigma Aldrich) from 1 μM to 0 μM was added to the cell stimulation mixture and incubated for 30 min at 37° C. After 30 min incubation, 5 μL of Ulight-anti-cAMP (1:150 dilution with conjugate and lysis buffer provided by Perkin Elmer) and 5 μL of Eu-cAMP tracer (1:50 dilution with conjugate and lysis buffer provided by Perkin Elmer) was added the cells and incubated for an hour. FRET signal was detected with an Envision multilabel plate reader (Perkin Elmer) loaded with 615 nm […] filters and 665 nm emission filters.
(§2) Data analysis was performed using on GraphPad Prism (version 7.02) to determine the KB of the test compounds.

[2] = target: T2, Human A2AR (Homo sapiens, UniProt P29274); assay: Human 2A Adenosine Receptor (A2aR) CHO-TREx cAMP antagonist functional assay; format: cell-based; conditions: cAMP antagonist functional assay vs NECA, CHO-T-REx cells induced to express Human A2AR; read-out: A2A (Potency: A2AR KB)
T2 construct: expressed in transfected cells; host or cells: CHO-T-REx cells, tetracycline-inducible expression
Protocol: Measurement of the Adenosine Receptor Activity of Compounds Using a Human 2A Adenosine Receptor (A2aR) CHO-TREx cAMP Functional Assay
The cAMP antagonist functional assay (Perkin Elmer) was performed on CHO-T-REx cells induced to express Human A2AR. Cells were seeded to a white 384-well Opti plate at a density of 1,000 to 2,500 cells per well followed by incubation with various concentrations of compound (ranging from 1 μM to 0 μM) at 37° C. for 1 hour.
as §1, §2

T2 sequence (P29274 whole entry): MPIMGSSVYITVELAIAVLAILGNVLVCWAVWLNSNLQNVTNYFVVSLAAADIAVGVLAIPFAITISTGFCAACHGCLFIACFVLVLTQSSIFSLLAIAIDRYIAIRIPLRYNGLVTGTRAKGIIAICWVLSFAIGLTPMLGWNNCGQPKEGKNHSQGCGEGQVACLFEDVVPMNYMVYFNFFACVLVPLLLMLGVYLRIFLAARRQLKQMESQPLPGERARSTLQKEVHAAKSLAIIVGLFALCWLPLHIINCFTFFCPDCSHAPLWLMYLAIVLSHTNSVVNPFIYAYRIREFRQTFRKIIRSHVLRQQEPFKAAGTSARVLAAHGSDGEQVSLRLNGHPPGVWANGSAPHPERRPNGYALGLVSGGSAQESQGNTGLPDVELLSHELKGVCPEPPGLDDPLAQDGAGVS

Row | Kb [1] [nM] | Kb [2] [nM] | Molecule
1 | < 100 | < 100 | 1-[(S)-Tetrahydro-2H-pyran-3-yl]-3-{[4-(2-amino-8-methoxy-4-quinazolinyl)-1H-1,2,3-triazol-1-yl]methyl}-1H-pyridin-2-one [Example 32]
2 | < 100 | < 100 | COc1cccc2c(-c3cn(Cc4cccn(CC(C)(C)O)c4=O)nn3)nc(N)nc12 [Example 3]
3 | < 100 | < 100 | Cc1cccc2c(-c3cn(Cc4cccn(C(C)C)c4=O)nn3)nc(N)nc12 [Example 6]
4 | 100 to 1000 | < 100 | COc1cccc2c(-c3cn(Cc4cccn(C(C)C)c4=O)nn3)cc(N)nc12 [Example 8]
5 | < 100 | < 100 | COc1cccc2c(-c3cn(Cc4cccn(CC5CCOCC5)c4=O)nn3)nc(N)nc12 [Example 21]
6 | < 100 | < 100 | COC[C@@H](C)n1cccc(Cn2cc(-c3nc(N)nc4c(OC)cccc34)nn2)c1=O [Example 24]
7 | 100 to 1000 | < 100 | COC[C@H](C)n1cccc(Cn2cc(-c3nc(N)nc4c(OC)cccc34)nn2)c1=O [Example 25]
8 | < 100 | < 100 | COc1cccc2c(-c3cn(Cc4cccn([C@@H](C)C(C)(C)O)c4=O)nn3)nc(N)nc12 [Example 26, 1-[(S)-2-Hydroxy-1,2-dimethylpropyl]-3-{[4-(2-amino-8-methoxy-4-quinazolinyl)-1H-1,2,3-triazol-1-yl]methyl}-1H-pyridin-2-one]
9 | 100 to 1000 | < 100 | COc1cccc2c(-c3cn(Cc4cccn([C@H](C)C(C)(C)O)c4=O)nn3)nc(N)nc12 [Example 27, 1-[(R)-2-Hydroxy-1,2-dimethylpropyl]-3-{[4-(2-amino-8-methoxy-4-quinazolinyl)-1H-1,2,3-triazol-1-yl]methyl}-1H-pyridin-2-one]
10 | < 100 | < 100 | COc1cccc2c(-c3cn(Cc4cccn([C@H](C)C5CCOCC5)c4=O)nn3)nc(N)nc12 [Example 28]
11 | < 100 | < 100 | COc1cccc2c(-c3cn(Cc4cccn([C@@H](C)C5CCOCC5)c4=O)nn3)nc(N)nc12 [Example 29]
12 | 100 to 1000 | < 100 | CCn1cccc(Cn2cc(-c3nc(N)nc4c(OC)cccc34)cn2)c1=O [Example 40, 3-{[4-(2-Amino-8-methoxy-4-quinazolinyl)-1H-pyrazol-1-yl]methyl}-1-ethyl-1H-pyridin-2-one]

Row | Molecule | Kb [1] [nM] | Kb [2] [nM]
13 | 3-{[4-(2-Amino-8-methoxy-4-quinazolinyl)-1H-1,2,3-triazol-1-yl]methyl}-1-(cyclopropylmethyl)-1H-pyridin-2-one [Example 4] | 100 to 1000 | < 100
